Patent publication US6979682B2, “Platelet-activating factor antagonist inhibition of angiogenesis and tumor growth induced by basic fibroblast” (Board of Supervisors of Louisiana State University and …, priority 2001, dated 2005)

Key:
[1] = system: human prostatic carcinoma cells, PC-3 (subcutaneous xenografts); experiment: subcutaneous PC-3 xenografts in nude mice, tumor volume; format: in vivo, NCr athymic nude mice
Experimental: (§1) Pathogen-free 4 to 6 week-old male NCr athymic nude mice (Taconic, Germantown, N.Y.) were housed in sterilized, filter-topped cages kept in laminar flow isolators (Forma Scientific, Marietta, Ohio), and fed autoclaved food and water ad libitum. Four animals were housed in each cage. Mice were acclimated to the vivarium for one week prior to their use in study protocols. All procedures involving the mice were performed under sterile conditions in a laminar flow hood (Forma Scientific). All studies were approved by the institutional animal care and use committee.
(§2) Human PC-3 prostate cancer cells (2×10^6 cells; American Type Culture Collection CRL-1435) were inoculated subcutanteously into the flanks of nude mice in 0.1 ml HBSS (Hank's balanced salt solution) (Life Technologies). For implantation of orthotopic 201T cells, animals were fully anesthetized in a Harvard small animal anesthesia chamber using nebulized Metafane (Pitman Moore, Inc., Washington Crossing, N.J.). […] The needle was advanced through the chest wall into the lung tissue, and the tumor cell inoculum of 2×10^6 cells was then dispersed in a final volume of 0.1 ml HBSS/Matrigel (1:1 ratio). Animals were allowed to recover from anesthesia for approximately 10 min under heat lamps to maintain body temperature. The orthotopic implantation technique is further described in Hamide et al., 1997. For tumors implanted subcutaneously, tumors were measured in a blind fashion with dial calipers, and the volume was calculated using the formula ½*π(W*L*H).
Potential anti-angiogenic and anti-tumor effects of the PAF antagonist BN-50730 were tested on human tumor xenografts in the NCr athymic nude mice. Thirty mice were implanted with subcutaneous human prostatic carcinoma cells, PC-3, at day 0, and were randomized into three groups. Mice were treated either with a placebo, 30 mg/kg BN-50730, or 60 mg/kg BN-50730 at days 2, 4, 6, 8, 10, and 12 as shown in the schedule of FIG. 2b. Animals were sacrificed at day 13, 17, 21 and 28, and the volumes of the subcutaneous tumors were measured using dial calipers and the formula ½*π(W*L*H) as described in Example 1.
In a separate experiment to determine the effects of a high dose of LAU-8080 dissolved in 2-hydroxypropyl-β-cyclodextran (instead of DMSO) on PC-3 xenografts, mice were treated as shown in FIG. 4b. Tumors were implanted subcutaneously at day 0. The mice were then divided into two groups to receive injections of either a placebo or 120 mg/kg LAU-8080 on days 1, 3, 5, 8, 10, and 12. Mice were sacrificed on days 6, 8, 11, 13, 15, 18, 20, 21, and 25; and the volumes of the tumors were measured as described above.
Tumors were implanted at day 0. The tumors were allowed to expand to 100 mm^3 before treatment was initiated as shown in the schedule in FIG. 10b. Tumor measurements were begun on day 9. Treatments of the different groups were on days 13, 15, 17, 20, 22, 24, 27, 29, and 31. Tumor measurements were taken on days 13, 16, 20, 24, 27, 31, 37, and 40.

[2] = system: human 201T lung adenocarcinoma cells (orthotopic xenografts); experiment: orthotopic 201T xenografts in nude mice, mediastinal block weight; format: in vivo, NCr athymic nude mice; settings: 60 mg/kg at days 2, 4, 6, 8, 10, 12, sacrifice day 56
Experimental: as §1
as §2, with “Animals were allowed to recover from anesthesia for approximately 10 min under heat lamps to maintain body temperature. The orthotopic implantation technique is further described in Hamide et al., 1997.” left out, “½*π(W*L*H). […]” for “½*π(W*L*H).”

bFGF = experiment: Western blot analysis of cell lysates for bFGF; format: cell-based, human; settings: 5 μM, 18 hr prior to cell harvest
Experimental: HUVEC, PC-3, and 201T cells were grown to 75% confluency in the appropriate growth media. BN-50730 (5 μM) or vehicle (DMSO) was added to each cell line 18 hr prior to cell harvest. Cells were washed three times in phosphate-buffered saline (“PBS”) and scraped into Lemely buffer which lacked bromophenol blue and β-mercaptoethanol (0.1 M NaCl, 0.01M Tris-HCl (pH 7.6), 0.001 M EDTA, 1 μg/ml aprotinin, 100 μg/ml phenylmethylsulfonyl flouride, 2% SDS, and 10% glycerol). The cell suspension was boiled for 10 min and then immediately stored at −20° C. Protein levels were quantified using a Bio-Rad Protein Assay (Bio-Rad, Hercules, Calif.). Protein samples (20 μg) were separated through a 10–20% denaturing gradient acrylamide gel in Tris-glycine buffer and transferred to nitrocellulose (Bio-Rad) by electrophoretic blotting. […] Primary antibody was detected using alkaline phosphatase-conjugated goat anti-mouse IgG (Bio-Rad).
The methods were as in Example 1. Lysates were analyzed from HUVEC cells grown in the presence of DMSO (Lane 1) or 5 μM BN-50730 (Lane 2); PC-3 cells grown in the presence of DMSO (Lane 3) or 5 μM BN-50730 (Lane 4); and 201T cells grown in the presence of DMSO (Lane 5) or 5 μM BN-50730 (Lane 6). […]

[3] = visual observation of side effects in treated mice; format: in vivo, NCr athymic nude mice; settings: mice treated at any dose

SMILES: COc1ccc(NC(=O)N2CCc3c(sc4c3C(c3ccccc3Cl)=NCc3nnc(C)n3-4)C2)cc1 [BN-50730, tetrahydro-4,7,8,10 methyl-1 (chloro-2 phenyl)-6 (methoxy-4 phenyl-carbomoyl)-9 pyrido [4′,3′-4,5] thieno [3,2-f] triazolo-1,2,4[4,3-α]diazepine-1,4]
- tumor size (volume) of subcutaneous PC-3 xenografts ([1]; 30 mg/kg or 60 mg/kg at days 2, 4, 6, 8, 10, 12, measured day 13, 17, 21, 28, vs placebo, p<0.001): significant dose-dependent reduction in tumor size
- tumor volume of subcutaneous PC-3 xenografts, high dose ([1]; 120 mg/kg in 2-hydroxypropyl-β-cyclodextran on days 1, 3, 5, 8, 10, 12, vs placebo, p=0.0001, F-test): significantly smaller tumors
- time at which tumors began to increase in size ([1]; 120 mg/kg on days 1, 3, 5, 8, 10, 12, PC-3 xenografts): did not begin to increase in size until after treatment was stopped at day 12
- tumor size, BN-50730-treated vs IFN-2a-treated mice ([1]; established PC-3 xenografts, 120 mg/kg vs 1,000 U, p=0.089, F-test): no significant difference
- tumor size of established PC-3 xenografts vs control animals ([1]; tumors expanded to 100 mm^3 before treatment, treatment days 13-31, 120 mg/kg BN-50730 and/or 1,000 U IFN-2a, p<0.001, F-test): significantly smaller tumors
- mediastinal block weight, placebo-treated vs LAU-8080-treated ([2]; p=0.011, Student's t-test): significantly larger in placebo-treated animals
- mediastinal weight vs control litter mates without tumor cell implantation ([2]; p=0.800, Student's t-test): the same as for control liter mates
- production of bFGF by 201T and PC-3 cells (bFGF): does not inhibit the production of bFGF
- side effects, visual observations [3]: no apparent side effects
